In the SangsterLogP compilation one finds logP data, which are given here for 22 compounds.

In turn, `CC(=O)c1cc2cccc3ccc4cccc1c4c32` had a logP of 4.16. As for `Brc1ccc2ccc3c(Br)ccc4ccc1c2c43`, the logP stood at 6.69. Turning to `Brc1c2ccccc2cc2ccccc12`, the logP was 5.37. Under `COC(=O)c1cc2ccc3cccc4ccc(c1)c2c34` stands 4.85; under `CC(=O)c1c2ccccc2cc2ccccc12`, 3.6; under `CC(=O)c1cc2ccc3cccc4ccc(c1)c2c34`, 4.29. Then `Brc1cc2cccc3ccc4cccc1c4c32`, with 5.84; and `CC(=O)c1ccc2ccc3cccc4ccc1c2c34`, with 4.18. Then `NC(=O)c1c2ccccc2cc2ccccc12`, with 2.23; and `O=Cc1c2ccccc2cc2ccccc12`, with 3.77; and `COc1c2ccccc2cc2ccccc12`, with 4.36. In the case of `Brc1ccc2ccc3ccc(Br)c4ccc1c2c34`, the log partition coefficient (logP) was 6.73. Take `Brc1c2ccccc2c(Br)c2ccccc12`: the logP is 6.29. Take `O=C1c2ccccc2C(=O)c2ccccc21`: the logP came to 3.28. For the compound `COC(=O)c1c2ccccc2cc2ccccc12`, the logP came to 3.83. `Clc1c2ccccc2cc2ccccc12` yielded a logP of 5.27. Under `COC(=O)c1ccc2ccc3cccc4ccc1c2c34` stands 4.73. Under `Brc1cc(Br)c2ccc3cccc4ccc1c2c43` stands 6.85; under `Brc1ccc2ccc3cccc4ccc1c2c34`, 5.81. Under `Brc1cc2ccc3cccc4ccc(c1)c2c34` stands 5.8. As to `N#Cc1c2ccccc2cc2ccccc12`, the logP was 3.98.

Consider `O=Cc1ccc2ccc3cccc4ccc1c2c34`, for which the logP turned out to be 4.23.
